Experiments:
PDGFRβ = PDGFRβ (Homo sapiens (Human), UniProt P09619); assay: Inhibition of PDGFRβ kinase activity (HTRF KinEASE-TK); settings: biochemical, HTRF KinEASE-TK
Outline: (§1)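 Recombinant kinases (2 nM CSF1R and c-Kit, 10 nM PDGFRα/β, 2× working) preincubated 1 h with compound in 50 mM HEPES pH 7.4, 5 mM MgCl2 (c-Kit) or 10 mM (others), 2 mM MnCl2; 2× ATP: c-Kit 16 μM, PDGFRα 1 μM, PDGFRβ 40 μM, CSF1R 20 μM. 120 min reaction at rt; TR-FRET 665/620 nm; IC50 by 4-parameter fit.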

[1] = system: Phospho-KIT (Y703) in M07e cells; assay: Phospho-KIT (Y703) cellular assay in M07e cells; format: cell-based; settings: M-07e; Phospho-KIT (Y703), M07e cells; read-out: M07e Cell IC50
Protocol: Phospho-KIT (Y703) Cellular Assay in M07e Cells
The day prior to assay, M07e cells (DSMZ, catalog #ACC 104) were serum starved. Cells were centrifuged and cell pellet resuspended in OptiMEM (Gibco, catalog #31985062) to a density of 1×10^6-2.5×10^6 cells per mL. Cells were then incubated overnight at 5% CO2 and 37° C. in an appropriately sized flask. On the day of the experiment, an 11 point, half log titration of test compound was pre-dispensed into 96-well round bottom polypropylene plates (Corning, catalog #3365). The serum starved M07e cells were centrifuged and resuspended to a cell density of 1×10^6 cells per mL with DPBS (Gibco, catalog #14190-144). Live/Dead Green Fixable viability dye (Invitrogen, catalog #L34970) was added as 1 μL/1 mL of cell suspension. Cells were then incubated in the dark at 4° C. for 30 min. Cells were washed by centrifugation and resuspension with DPBS+0.5% BSA (Gemini Bio Products, catalog #700110/100, 30% BSA solution). Cells were resuspended, separated into two equal volumes and again centrifuged. Cell pellets were resuspended with OptiMEM™ to a cell density of 1×10^6 cells per mL. Cells were then added to the appropriate compound plate at 100,000 cells per well in 100 μL and mixed. Plates were incubated at 5% CO2 and 37° C. for 50 min. Stem Cell Factor, SCF (R&D Systems, #255-SC/CF) was diluted in OptiMEM to 1 μg/mL and added to all wells as 10 μL for a final concentration of 90.9 ng/mL. Plates were incubated at 5% CO2 and 37° C. for 10 min. Incubation was stopped by addition of 110 μL 4% paraformaldehyde solution in PBS (Life Technologies, catalog #J19943.K2). Plates were incubated at rt for at least 15 min. Plates were then centrifuged and supernatant removed by flicking. Cells were washed once by resuspension in 200 μL DPBS+0.5% BSA, centrifuged, and supernatant removed by flicking. Cells were resuspended in 100 μL 1X Permeabilization buffer (Invitrogen, catalog #88882400) and plates incubated at rt for 30 min. Plates were centrifuged, supernatant removed by flicking, and cells resuspended in 50 μL primary antibody, anti-phospho-c-KIT (Tyr703) (Cell Signaling, catalog #3073), diluted to 1 μg/mL with permeabilization buffer. Plates were incubated at rt for 1 h. Plates were centrifuged, supernatant removed, and cells resuspended with 200 μL DPBS+0.5% BSA. Plates were again centrifuged, supernatant removed by flicking, and cells resuspended in 100 μL secondary antibody, goat anti-rabbit AlexaFluor647 (AF647) (Invitrogen, catalog #A21244) diluted to 1 μg/mL with DPBS+0.5% BSA. Plates were incubated at rt for 30 min. followed by centrifugation, supernatant removal, and cell resuspension with 200 μL DPBS+0.5% BSA. Cells were washed again by centrifugation, supernatant removal, and cell resuspension with 200 μL DPBS+0.5% BSA. Samples were then read by flow cytometry. The Forward: Side scatter plot was gated and that population was gated for live cells based on the Live/Dead Green staining. The geometric mean of AF647 of the live cell population was recorded. Percentage maximum activity in each test well was calculated based on DMSO (100% activity) and positive control treated cell wells (0% activity). The potencies (IC50 values) of test compounds were determined using a standard 4-parameter non-linear regression fit.

c-Kit = c-Kit (Homo sapiens (Human), UniProt P10721); assay: Inhibition of c-Kit kinase activity (HTRF KinEASE-TK); format: biochemical; settings: biochemical, HTRF KinEASE-TK
Outline: as §1

CSF1R = CSF1R (Homo sapiens (Human), UniProt P07333); assay: Inhibition of CSF1R kinase activity (HTRF KinEASE-TK); settings: biochemical, HTRF KinEASE-TK
Outline: as §1

PDGFRα = PDGFRα (Homo sapiens (Human), UniProt P16234); assay: Inhibition of PDGFRα kinase activity (HTRF KinEASE-TK); settings: biochemical, HTRF KinEASE-TK
Outline: as §1

Chain of PDGFRβ (P09619 33-1106): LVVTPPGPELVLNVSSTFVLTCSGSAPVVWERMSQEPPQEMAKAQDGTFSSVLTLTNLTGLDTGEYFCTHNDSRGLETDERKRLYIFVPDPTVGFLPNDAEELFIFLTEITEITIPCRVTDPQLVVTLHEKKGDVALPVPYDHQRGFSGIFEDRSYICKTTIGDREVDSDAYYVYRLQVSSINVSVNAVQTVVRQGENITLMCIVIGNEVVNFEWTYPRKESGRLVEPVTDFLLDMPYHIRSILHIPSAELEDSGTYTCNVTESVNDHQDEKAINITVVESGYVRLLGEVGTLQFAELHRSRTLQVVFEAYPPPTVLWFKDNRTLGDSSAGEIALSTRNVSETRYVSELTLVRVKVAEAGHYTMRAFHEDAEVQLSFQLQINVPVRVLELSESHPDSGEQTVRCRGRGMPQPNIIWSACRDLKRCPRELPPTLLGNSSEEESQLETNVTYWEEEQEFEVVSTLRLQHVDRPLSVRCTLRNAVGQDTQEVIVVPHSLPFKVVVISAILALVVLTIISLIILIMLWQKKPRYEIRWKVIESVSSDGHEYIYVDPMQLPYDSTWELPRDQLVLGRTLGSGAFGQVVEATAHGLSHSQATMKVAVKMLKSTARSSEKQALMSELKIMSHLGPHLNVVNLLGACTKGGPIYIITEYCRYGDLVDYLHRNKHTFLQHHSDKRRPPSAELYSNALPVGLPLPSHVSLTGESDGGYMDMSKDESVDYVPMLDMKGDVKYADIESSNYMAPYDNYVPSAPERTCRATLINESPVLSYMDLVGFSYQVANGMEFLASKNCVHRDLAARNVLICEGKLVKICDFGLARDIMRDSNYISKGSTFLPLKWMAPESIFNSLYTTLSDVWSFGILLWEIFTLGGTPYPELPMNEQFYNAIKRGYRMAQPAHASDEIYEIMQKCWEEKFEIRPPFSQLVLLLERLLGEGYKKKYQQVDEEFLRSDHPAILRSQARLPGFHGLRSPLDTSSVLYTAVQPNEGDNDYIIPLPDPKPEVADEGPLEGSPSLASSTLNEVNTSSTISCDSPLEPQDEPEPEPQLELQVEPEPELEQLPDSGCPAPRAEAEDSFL
Chain of c-Kit (P10721 26-976): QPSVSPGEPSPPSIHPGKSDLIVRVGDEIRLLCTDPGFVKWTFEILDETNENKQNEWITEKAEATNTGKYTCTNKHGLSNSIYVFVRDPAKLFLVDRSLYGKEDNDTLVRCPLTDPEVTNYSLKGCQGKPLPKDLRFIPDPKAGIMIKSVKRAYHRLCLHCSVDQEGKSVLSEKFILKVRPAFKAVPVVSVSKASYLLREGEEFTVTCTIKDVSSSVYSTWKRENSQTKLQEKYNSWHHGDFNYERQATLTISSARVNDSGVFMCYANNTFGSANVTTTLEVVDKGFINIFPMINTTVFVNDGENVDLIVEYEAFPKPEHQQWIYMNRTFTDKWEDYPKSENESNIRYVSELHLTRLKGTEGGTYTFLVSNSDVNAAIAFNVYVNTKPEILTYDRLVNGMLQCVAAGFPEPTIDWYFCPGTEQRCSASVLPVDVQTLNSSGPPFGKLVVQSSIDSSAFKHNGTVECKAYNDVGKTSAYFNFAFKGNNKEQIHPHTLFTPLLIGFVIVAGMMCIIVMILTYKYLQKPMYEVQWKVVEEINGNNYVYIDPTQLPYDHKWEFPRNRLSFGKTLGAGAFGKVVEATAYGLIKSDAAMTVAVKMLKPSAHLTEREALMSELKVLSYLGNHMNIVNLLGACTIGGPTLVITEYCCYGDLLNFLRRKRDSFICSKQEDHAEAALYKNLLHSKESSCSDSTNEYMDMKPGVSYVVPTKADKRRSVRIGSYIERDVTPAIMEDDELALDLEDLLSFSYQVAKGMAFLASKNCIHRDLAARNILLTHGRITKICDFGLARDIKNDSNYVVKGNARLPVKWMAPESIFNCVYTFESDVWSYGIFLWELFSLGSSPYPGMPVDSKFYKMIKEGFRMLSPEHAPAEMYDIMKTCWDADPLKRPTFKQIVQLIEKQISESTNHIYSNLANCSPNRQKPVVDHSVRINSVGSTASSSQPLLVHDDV
Chain of PDGFRα (P16234 24-1089): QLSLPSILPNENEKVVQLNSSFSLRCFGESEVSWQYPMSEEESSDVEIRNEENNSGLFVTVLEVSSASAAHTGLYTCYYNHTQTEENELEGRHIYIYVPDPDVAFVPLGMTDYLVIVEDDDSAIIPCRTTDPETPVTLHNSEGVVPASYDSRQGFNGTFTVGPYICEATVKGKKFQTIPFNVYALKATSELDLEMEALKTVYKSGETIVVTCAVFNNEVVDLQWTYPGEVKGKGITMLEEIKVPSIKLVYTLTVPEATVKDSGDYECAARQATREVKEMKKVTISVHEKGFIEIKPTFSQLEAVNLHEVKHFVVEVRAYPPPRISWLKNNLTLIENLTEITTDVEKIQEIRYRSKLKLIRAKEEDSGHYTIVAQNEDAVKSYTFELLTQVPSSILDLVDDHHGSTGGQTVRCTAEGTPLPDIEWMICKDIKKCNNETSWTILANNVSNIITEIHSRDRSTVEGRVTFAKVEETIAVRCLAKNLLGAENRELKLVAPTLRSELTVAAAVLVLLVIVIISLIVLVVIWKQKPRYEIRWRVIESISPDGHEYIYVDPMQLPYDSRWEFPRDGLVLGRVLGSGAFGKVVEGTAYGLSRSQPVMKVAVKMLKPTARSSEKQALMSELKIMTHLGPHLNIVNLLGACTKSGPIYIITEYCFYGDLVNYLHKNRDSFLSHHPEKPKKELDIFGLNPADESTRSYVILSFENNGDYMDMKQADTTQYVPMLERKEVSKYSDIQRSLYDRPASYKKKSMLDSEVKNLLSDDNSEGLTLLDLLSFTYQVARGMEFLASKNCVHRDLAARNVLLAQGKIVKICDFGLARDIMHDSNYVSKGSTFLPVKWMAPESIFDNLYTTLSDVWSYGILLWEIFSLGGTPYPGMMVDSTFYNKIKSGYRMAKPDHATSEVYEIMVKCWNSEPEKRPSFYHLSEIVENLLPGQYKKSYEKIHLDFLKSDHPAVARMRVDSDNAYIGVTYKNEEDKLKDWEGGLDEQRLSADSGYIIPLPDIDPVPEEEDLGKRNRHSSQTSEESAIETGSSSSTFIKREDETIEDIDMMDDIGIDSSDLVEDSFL
Chain of CSF1R (P07333 20-972): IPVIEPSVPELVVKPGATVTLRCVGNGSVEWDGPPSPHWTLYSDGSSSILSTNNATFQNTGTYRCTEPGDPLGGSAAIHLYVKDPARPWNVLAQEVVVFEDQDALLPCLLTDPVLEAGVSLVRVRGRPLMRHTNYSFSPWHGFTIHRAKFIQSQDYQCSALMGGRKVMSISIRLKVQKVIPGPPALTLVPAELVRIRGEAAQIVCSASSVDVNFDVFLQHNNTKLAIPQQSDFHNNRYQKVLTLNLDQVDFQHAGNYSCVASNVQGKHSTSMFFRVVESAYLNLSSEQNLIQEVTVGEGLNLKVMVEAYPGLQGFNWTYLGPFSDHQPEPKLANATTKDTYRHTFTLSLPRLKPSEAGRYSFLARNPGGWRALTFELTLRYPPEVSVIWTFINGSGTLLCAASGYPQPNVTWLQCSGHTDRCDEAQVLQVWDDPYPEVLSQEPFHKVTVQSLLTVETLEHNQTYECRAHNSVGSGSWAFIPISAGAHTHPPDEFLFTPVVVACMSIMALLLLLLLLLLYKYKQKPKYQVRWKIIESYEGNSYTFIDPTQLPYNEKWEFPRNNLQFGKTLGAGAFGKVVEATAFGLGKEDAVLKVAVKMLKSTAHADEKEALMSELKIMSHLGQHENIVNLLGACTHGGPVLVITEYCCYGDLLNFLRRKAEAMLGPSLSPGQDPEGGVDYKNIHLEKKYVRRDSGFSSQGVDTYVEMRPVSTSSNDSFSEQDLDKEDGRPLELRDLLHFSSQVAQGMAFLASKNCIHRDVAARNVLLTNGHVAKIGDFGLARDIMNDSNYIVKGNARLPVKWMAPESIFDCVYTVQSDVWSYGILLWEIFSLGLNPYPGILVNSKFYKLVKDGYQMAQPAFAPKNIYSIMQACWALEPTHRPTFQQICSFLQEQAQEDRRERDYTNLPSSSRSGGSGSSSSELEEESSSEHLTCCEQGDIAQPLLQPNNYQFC

Row | IC50 (PDGFRβ) [µM] | IC50 [1] [µM] | IC50 (c-Kit) [µM] | IC50 (CSF1R) [µM] | IC50 (PDGFRα) [µM] | SMILES
1 |  | < 0.1 | < 0.1 | > 1 |  | Cc1ncc(C(=O)Nc2cc(C(=O)Nc3cncc(C(F)F)c3)c(F)cc2C)s1 [Example 76, N-[5-[[5-(difluoromethyl)pyridin-3-yl]carbamoyl]-4-fluoro-2-methylphenyl]-2-methyl-1,3-thiazole-5-carboxamide]
2 |  | < 0.1 | < 0.1 | > 1 |  | Cc1ncc(C(=O)Nc2cc(C(=O)Nc3cncc(C(F)(F)F)c3)c(F)cc2C)s1 [Example 77, N-[4-fluoro-2-methyl-5-[[5-(trifluoromethyl)pyridin-3-yl]carbamoyl]phenyl]-2-methyl-1,3-thiazole-5-carboxamide]
3 |  | < 0.1 | < 0.1 | > 1 |  | Cc1ncc(C(=O)Nc2cc(C(=O)Nc3cncc(CC(F)(F)F)c3)c(F)cc2C)s1 [Example 81, N-[4-fluoro-2-methyl-5-[[5-(2,2,2-trifluoroethyl)pyridin-3-yl]carbamoyl]phenyl]-2-methyl-1,3-thiazole-5-carboxamide]
4 |  | < 0.1 | < 0.1 | > 1 |  | Cc1ncc(C(=O)Nc2cc(C(=O)Nc3ccc(CC(F)(F)F)nc3)c(F)cc2C)s1 [Example 98, N-[4-fluoro-2-methyl-5-[[6-(2,2,2-trifluoroethyl)pyridin-3-yl]carbamoyl]phenyl]-2-methyl-1,3-thiazole-5-carboxamide]
5 |  | < 0.1 | < 0.1 | 0.1 to 1 |  | Nc1ncc(C(=O)Nc2cc(C(=O)Nc3ccc(CC(F)(F)F)cn3)c(F)cc2F)s1 [Example 221, 2-Amino-N-[2,4-difluoro-5-[[5-(2,2,2-trifluoroethyl)pyridin-2-yl]carbamoyl]phenyl]-1,3-thiazole-5-carboxamide]
6 |  | < 0.1 | < 0.1 | < 0.1 |  | Cc1cc(F)c(C(=O)Nc2cncc(C(F)F)c2)cc1NC(=O)c1cnc(N)s1 [Example 246, 2-Amino-N-[5-[[5-(difluoromethyl)pyridin-3-yl]carbamoyl]-4-fluoro-2-methylphenyl]-1,3-thiazole-5-carboxamide]
7 |  | < 0.1 | < 0.1 | < 0.1 |  | Cc1cc(F)c(C(=O)Nc2cncc(C(F)(F)F)c2)cc1NC(=O)c1cnc(N)s1 [Example 249, 2-Amino-N-[4-fluoro-2-methyl-5-[[5-(trifluoromethyl)pyridin-3-yl]carbamoyl]phenyl]-1,3-thiazole-5-carboxamide]
8 |  | 0.1 to 1 | 0.1 to 1 | > 1 |  | Cc1cc(F)c(C(=O)Nc2cccnc2C)cc1NC(=O)c1cnc(N)s1 [Example 250, 2-Amino-N-[4-fluoro-2-methyl-5-[(2-methylpyridin-3-yl)carbamoyl]phenyl]-1,3-thiazole-5-carboxamide]

The remaining lines, values behind:

Row | SMILES | IC50 (PDGFRβ) [µM] | IC50 [1] [µM] | IC50 (c-Kit) [µM] | IC50 (CSF1R) [µM] | IC50 (PDGFRα) [µM]
9 | Cc1ncc(C(=O)Nc2cc(C(=O)Nc3ccnc(C(F)(F)F)c3)c(F)cc2C)s1 [Example 25, N-[4-Fluoro-2-methyl-5-[[2-(trifluoromethyl)pyridin-4-yl]carbamoyl]phenyl]-2-methyl-1,3-thiazole-5-carboxamide] | 0.1 to 1 | < 0.1 | < 0.1 | > 1 | > 1
10 | Cc1ncc(C(=O)Nc2cc(C(=O)Nc3cnc(OC4CC(F)(F)C4)cn3)c(F)cc2C)s1 [Example 32, N-[5-[[5-(3,3-difluorocyclobutyl)oxypyrazin-2-yl]carbamoyl]-4-fluoro-2-methylphenyl]-2-methyl-1,3-thiazole-5-carboxamide] | > 1 | < 0.1 | < 0.1 | > 1 | > 1
11 | Cc1ncc(C(=O)Nc2cc(C(=O)Nc3ccc(OCC(F)F)cn3)c(F)cc2C)s1 [Example 36, N-[5-[[5-(2,2-difluoroethoxy)pyridin-2-yl]carbamoyl]-4-fluoro-2-methylphenyl]-2-methyl-1,3-thiazole-5-carboxamide] | > 1 | < 0.1 | < 0.1 | > 1 | > 1
12 | Cc1ncc(C(=O)Nc2cc(C(=O)Nc3ccc(OC(F)(F)F)cn3)c(F)cc2C)s1 [Example 39, N-[4-fluoro-2-methyl-5-[[5-(trifluoromethoxy)pyridin-2-yl]carbamoyl]phenyl]-2-methyl-1,3-thiazole-5-carboxamide] | > 1 | < 0.1 | < 0.1 | > 1 | > 1
13 | Cc1ncc(C(=O)Nc2cc(C(=O)Nc3ccc(OC(C)C)cn3)c(F)cc2Cl)s1 [Example 48, N-[2-chloro-4-fluoro-5-[(5-propan-2-yloxypyridin-2-yl)carbamoyl]phenyl]-2-methyl-1,3-thiazole-5-carboxamide] | > 1 | < 0.1 | < 0.1 | > 1 | > 1
14 | Cc1ncc(C(=O)Nc2cc(C(=O)Nc3ccc(OC4CC4)cn3)c(F)cc2Cl)s1 [Example 49, N-[2-chloro-5-[(5-cyclopropyloxypyridin-2-yl)carbamoyl]-4-fluorophenyl]-2-methyl-1,3-thiazole-5-carboxamide] | > 1 | < 0.1 | < 0.1 | > 1 | > 1
15 | Cc1ncc(C(=O)Nc2cc(C(=O)Nc3cc(CC4CC4)ncn3)c(F)cc2C)s1 [Example 50, N-(5-((6-(cyclopropylmethyl)pyrimidin-4-yl)carbamoyl)-4-fluoro-2-methylphenyl)-2-methylthiazole-5-carboxamide] | 0.1 to 1 | < 0.1 | < 0.1 | 0.1 to 1 | 0.1 to 1
16 | Cc1ncc(C(=O)Nc2cc(C(=O)NCc3ccccc3F)c(F)cc2C)s1 [Example 51, N-(4-fluoro-5-((2-fluorobenzyl)carbamoyl)-2-methylphenyl)-2-methylthiazole-5-carboxamide] | > 1 | < 0.1 | 0.1 to 1 | > 1 | > 1
17 | Cc1ncc(C(=O)Nc2cc(C(=O)Nc3cccc(CC(F)(F)F)n3)c(F)cc2C)s1 [Example 52, N-[4-fluoro-2-methyl-5-[[6-(2,2,2-trifluoroethyl)pyridin-2-yl]carbamoyl]phenyl]-2-methyl-1,3-thiazole-5-carboxamide] | > 1 | < 0.1 | < 0.1 | > 1 | > 1
18 | Cc1ncc(C(=O)Nc2cc(C(=O)Nc3cccc(C(F)(F)F)n3)c(F)cc2C)s1 [Example 55, N-[4-fluoro-2-methyl-5-[[6-(trifluoromethyl)pyridin-2-yl]carbamoyl]phenyl]-2-methyl-1,3-thiazole-5-carboxamide] |  | < 0.1 | < 0.1 | > 1 | 
19 | Cc1ncc(C(=O)Nc2cc(C(=O)Nc3cnc(C(F)F)cn3)c(F)cc2C)s1 [Example 56, N-[5-[[5-(difluoromethyl)pyrazin-2-yl]carbamoyl]-4-fluoro-2-methylphenyl]-2-methyl-1,3-thiazole-5-carboxamide] |  | 0.1 to 1 | 0.1 to 1 | > 1 | 
